{
  "source": "patent US7985410B2",
  "about": "“Method or agent for inhibiting the function of efflux pump Pseudomonas aeruginosa” (Tokai University, priority 2006, dated 2011)",
  "format_in_all_cases": "cell-based",
  "key": {"[1]": {"test_system": "Pseudomonas aeruginosa lacking OprM, plasmid with OprM (wild type)", "test": "Drug sensitivity (MIC), OprM (wild type)", "experimental": "(§1) Mutant protein was prepared in which 20 amino acid residues were replaced by cysteine residues, respectively, in E1 and E2 domains of the amino acid sequence of mature OprM protein as above. First, OprM gene was introduced into pUCP20 as a vector. This vector is a shuttle vector which works in Escherichia coli and Pseudomonas aeruginosa. Specific mutation was introduced to OprM gene by using regular mutation introducing kit, and resultant vector was transformed into E. coli. The resultant E. coli was cultured to prepare plasmid, and the sequence of the plasmid was determined to confirm that the mutation was successfully introduced.\n(§2) Next, the plasmid was introduced into the Pseudomonas aeruginosa lacking OprM, and the drug sensitivity of the resultant bacteria was determined to evaluate the pump function thereof. Drug sensitivity might be enhanced if the function of the pump was inhibited. Drug sensitivity was indicated by minimum inhibitory concentration (MIC). Aztreonam (AZT) (β-1 lactam antibiotic) and nalidixic acid (NA) (qunolone antibiotic) were used as drugs."}, "[2]": {"test_system": "Pseudomonas aeruginosa lacking OprM, plasmid with OprM (Q312C)", "test": "Drug sensitivity (MIC), OprM (Q312C)", "experimental": "as §1, §2"}, "[3]": {"test_system": "Pseudomonas aeruginosa lacking OprM, plasmid with OprM (F317C)", "test": "Drug sensitivity (MIC), OprM (F317C)", "experimental": "as §1, §2"}, "[4]": {"test_system": "Pseudomonas aeruginosa lacking OprM, plasmid with OprM (L316C)", "test": "Drug sensitivity (MIC), OprM (L316C)", "experimental": "as §1, §2"}, "[5]": {"test_system": "Pseudomonas aeruginosa lacking OprM, plasmid with OprM (S108C)", "test": "Drug sensitivity (MIC), OprM (S108C)", "experimental": "as §1, §2"}, "[6]": {"test_system": "Pseudomonas aeruginosa lacking OprM, plasmid with OprM (A319C)", "test": "Drug sensitivity (MIC), OprM (A319C)", "experimental": "as §1, §2"}, "[7]": {"test_system": "Pseudomonas aeruginosa lacking OprM, plasmid with OprM (G320C)", "test": "Drug sensitivity (MIC), OprM (G320C)", "experimental": "as §1, §2"}, "[8]": {"test_system": "Pseudomonas aeruginosa lacking OprM, plasmid with OprM (P100C)", "test": "Drug sensitivity (MIC), OprM (P100C)", "experimental": "as §1, §2"}, "[9]": {"test_system": "Pseudomonas aeruginosa lacking OprM, plasmid with OprM (G107C)", "test": "Drug sensitivity (MIC), OprM (G107C)", "experimental": "as §1, §2"}, "[10]": {"test_system": "Pseudomonas aeruginosa lacking OprM, plasmid with OprM (T106C)", "test": "Drug sensitivity (MIC), OprM (T106C)", "experimental": "as §1, §2"}, "[11]": {"test_system": "Pseudomonas aeruginosa lacking OprM, plasmid with OprM (T105C)", "test": "Drug sensitivity (MIC), OprM (T105C)", "experimental": "as §1, §2"}, "[12]": {"test_system": "Pseudomonas aeruginosa lacking OprM, plasmid with OprM (P109C)", "test": "Drug sensitivity (MIC), OprM (P109C)", "conditions": "for MIC: Pseudomonas aeruginosa, OprM (P109C)", "experimental": "as §1, §2"}, "[13]": {"test_system": "Pseudomonas aeruginosa lacking OprM, plasmid with OprM (R311C)", "test": "Drug sensitivity (MIC), OprM (R311C)", "conditions": "for resistance of the bacteria to the drug (in words): OprM (311C) mutant vs wild type; for MIC: Pseudomonas aeruginosa, OprM (R311C)", "experimental": "as §1, §2"}, "[14]": {"test_system": "Pseudomonas aeruginosa lacking OprM, plasmid with OprM (G101C)", "test": "Drug sensitivity (MIC), OprM (G101C)", "experimental": "as §1, §2"}, "[15]": {"test_system": "Pseudomonas aeruginosa lacking OprM, plasmid with OprM (L313C)", "test": "Drug sensitivity (MIC), OprM (L313C)", "experimental": "as §1, §2"}, "[16]": {"test_system": "Pseudomonas aeruginosa lacking OprM, plasmid with OprM (S314C)", "test": "Drug sensitivity (MIC), OprM (S314C)", "experimental": "as §1, §2"}, "[17]": {"test_system": "Pseudomonas aeruginosa lacking OprM, plasmid with OprM (S104C)", "test": "Drug sensitivity (MIC), OprM (S104C)", "experimental": "as §1, §2"}, "[18]": {"test_system": "Pseudomonas aeruginosa lacking OprM, plasmid with OprM (D318C)", "test": "Drug sensitivity (MIC), OprM (D318C)", "conditions": "for resistance of the bacteria to the drug (in words): OprM (D318C) mutant vs wild type; for MIC: Pseudomonas aeruginosa, OprM (D318C)", "experimental": "as §1, §2"}, "[19]": {"test_system": "Pseudomonas aeruginosa lacking OprM, plasmid with OprM (L103C)", "test": "Drug sensitivity (MIC), OprM (L103C)", "experimental": "as §1, §2"}, "[20]": {"test_system": "Pseudomonas aeruginosa lacking OprM, plasmid with OprM (G315C)", "test": "Drug sensitivity (MIC), OprM (G315C)", "experimental": "as §1, §2"}, "[21]": {"test_system": "Pseudomonas aeruginosa lacking OprM, plasmid with OprM (D102C)", "test": "Drug sensitivity (MIC), OprM (D102C)", "experimental": "as §1, §2"}},
  "note": "Read-outs that look alike come from different tables or passages of the source.",
  "data": [
    {"smiles": "C[C@H]1[C@H](NC(=O)/C(=N\\OC(C)(C)C(=O)O)c2csc(N)n2)C(=O)N1S(=O)(=O)O", "note": "[AZT, aztreonam]", "values": [
      {"measurement": "MIC", "setting": "[1]; read-out: MIC for AZT", "value": 3.13, "unit": "µg/mL"},
      {"measurement": "MIC", "setting": "[2]; read-out: MIC for AZT", "value": 0.78, "unit": "µg/mL"},
      {"measurement": "MIC", "setting": "[3]; read-out: MIC for AZT", "value": 1.54, "unit": "µg/mL"},
      {"measurement": "MIC", "setting": "[4]; read-out: MIC for AZT", "value": 3.13, "unit": "µg/mL"},
      {"measurement": "MIC", "setting": "[5]; read-out: MIC for AZT", "value": 3.13, "unit": "µg/mL"},
      {"measurement": "MIC", "setting": "[6]; read-out: MIC for AZT", "value": 1.54, "unit": "µg/mL"},
      {"measurement": "MIC", "setting": "[7]; read-out: MIC for AZT", "value": 1.54, "unit": "µg/mL"},
      {"measurement": "MIC", "setting": "[8]; read-out: MIC for AZT", "value": 3.13, "unit": "µg/mL"},
      {"measurement": "MIC", "setting": "[9]; read-out: MIC for AZT", "value": 3.13, "unit": "µg/mL"},
      {"measurement": "MIC", "setting": "[10]; read-out: MIC for AZT", "value": 3.13, "unit": "µg/mL"},
      {"measurement": "MIC", "setting": "[11]; read-out: MIC for AZT", "value": 3.13, "unit": "µg/mL"},
      {"measurement": "MIC", "setting": "[12]; read-out: MIC for AZT", "value": 3.13, "unit": "µg/mL"},
      {"measurement": "resistance of the bacteria to the drug (in words)", "setting": "[13]", "value": "markedly reduced resistance"},
      {"measurement": "MIC", "setting": "[13]; read-out: MIC for AZT", "value": 0.39, "unit": "µg/mL"},
      {"measurement": "MIC", "setting": "[14]; read-out: MIC for AZT", "value": 3.13, "unit": "µg/mL"},
      {"measurement": "MIC", "setting": "[15]; read-out: MIC for AZT", "value": 3.13, "unit": "µg/mL"},
      {"measurement": "MIC", "setting": "[16]; read-out: MIC for AZT", "value": 3.13, "unit": "µg/mL"},
      {"measurement": "MIC", "setting": "[17]; read-out: MIC for AZT", "value": 3.13, "unit": "µg/mL"},
      {"measurement": "resistance of the bacteria to the drug (in words)", "setting": "[18]", "value": "markedly reduced resistance"},
      {"measurement": "MIC", "setting": "[18]; read-out: MIC for AZT", "value": 0.39, "unit": "µg/mL"},
      {"measurement": "MIC", "setting": "[19]; read-out: MIC for AZT", "value": 3.13, "unit": "µg/mL"},
      {"measurement": "MIC", "setting": "[20]; read-out: MIC for AZT", "value": 0.78, "unit": "µg/mL"},
      {"measurement": "MIC", "setting": "[21]; read-out: MIC for AZT", "value": 3.13, "unit": "µg/mL"}
    ]},
    {"smiles": "CCn1cc(C(=O)O)c(=O)c2ccc(C)nc21", "note": "[NA, nalidixic acid]", "values": [
      {"measurement": "MIC", "setting": "[1]; read-out: MIC for NA", "value": 50, "unit": "µg/mL"},
      {"measurement": "MIC", "setting": "[2]; read-out: MIC for NA", "value": 25, "unit": "µg/mL"},
      {"measurement": "MIC", "setting": "[3]; read-out: MIC for NA", "value": 50, "unit": "µg/mL"},
      {"measurement": "MIC", "setting": "[4]; read-out: MIC for NA", "value": 50, "unit": "µg/mL"},
      {"measurement": "MIC", "setting": "[5]; read-out: MIC for NA", "value": 50, "unit": "µg/mL"},
      {"measurement": "MIC", "setting": "[6]; read-out: MIC for NA", "value": 50, "unit": "µg/mL"},
      {"measurement": "MIC", "setting": "[7]; read-out: MIC for NA", "value": 50, "unit": "µg/mL"},
      {"measurement": "MIC", "setting": "[8]; read-out: MIC for NA", "value": 50, "unit": "µg/mL"},
      {"measurement": "MIC", "setting": "[9]; read-out: MIC for NA", "value": 50, "unit": "µg/mL"},
      {"measurement": "MIC", "setting": "[10]; read-out: MIC for NA", "value": 50, "unit": "µg/mL"},
      {"measurement": "MIC", "setting": "[11]; read-out: MIC for NA", "value": 50, "unit": "µg/mL"},
      {"measurement": "drug sensitivity of the bacteria (in words)", "setting": "[12]; OprM (P109C) mutant vs wild type", "value": "enhanced drug sensitivity"},
      {"measurement": "MIC", "setting": "[12]; read-out: MIC for NA", "value": 3.13, "unit": "µg/mL"},
      {"measurement": "resistance of the bacteria to the drug (in words)", "setting": "[13]", "value": "markedly reduced resistance"},
      {"measurement": "MIC", "setting": "[13]; read-out: MIC for NA", "value": 6.25, "unit": "µg/mL"},
      {"measurement": "MIC", "setting": "[14]; read-out: MIC for NA", "value": 50, "unit": "µg/mL"},
      {"measurement": "MIC", "setting": "[15]; read-out: MIC for NA", "value": 50, "unit": "µg/mL"},
      {"measurement": "MIC", "setting": "[16]; read-out: MIC for NA", "value": 50, "unit": "µg/mL"},
      {"measurement": "MIC", "setting": "[17]; read-out: MIC for NA", "value": 50, "unit": "µg/mL"},
      {"measurement": "resistance of the bacteria to the drug (in words)", "setting": "[18]", "value": "did not reduce resistance"},
      {"measurement": "MIC", "setting": "[18]; read-out: MIC for NA", "value": 25, "unit": "µg/mL"},
      {"measurement": "MIC", "setting": "[19]; read-out: MIC for NA", "value": 50, "unit": "µg/mL"},
      {"measurement": "MIC", "setting": "[20]; read-out: MIC for NA", "value": 25, "unit": "µg/mL"},
      {"measurement": "MIC", "setting": "[21]; read-out: MIC for NA", "value": 50, "unit": "µg/mL"}
    ]}
  ]
}
